Data reported in ChEMBL document CHEMBL5126551, “Spiral molecules with antimalarial activities: A review” (Eur J Med Chem, 2022).
≈ marks a conversion by molar mass, not a printed value. Each block holds one compound with its values, some of them ahead of it.

What was measured:
[1] = system: Plasmodium falciparum; assay: Antimalarial activity against chloroquine sensitive Plasmodium falciparum NF54 assessed as inhibition of parasite growth by [3H]-hypoxanthine incorporation assay; assay type: functional, organism-based
[2] = system: Plasmodium falciparum; assay: Antimalarial activity against chloroquine resistant Plasmodium falciparum K1 assessed as inhibition of parasite growth by [3H]-hypoxanthine incorporation assay; assay type: functional, organism-based
[3] = system: Plasmodium falciparum; assay: (§1) Antimalarial activity against chloroquine resistant Plasmodium falciparum K1 infected in human erythrocyte assessed as inhibition of parasite growth preincubated with compound for 24 hrs followed by hypoxanthine addition and measured after 24 hrs by [3H]-hypoxanthine incorporation based liquid scintillation counter; assay type: functional, organism-based
[4] = system: Plasmodium berghei; assay: Antimalarial activity against Plasmodium berghei GFP ANKA infected in NMRI mouse assessed as reduction in blood parasitemia level measured on day 4 by FACS analysis; assay type: functional, organism-based
[5] = system: Plasmodium falciparum; assay: as §1, with “sensitive” for “resistant”, “3D7” for “K1”; assay type: functional, organism-based; settings: 3D7, Erythrocyte
[6] = system: Plasmodium falciparum; assay: Antimalarial activity against chloroquine-sensitive Plasmodium falciparum 3D7 infected in human erythrocyte assessed as inhibition of parasite growth incubated for 66 hrs by [3H]-hypoxanthine incorporation assay based liquid scintillation spectrometric method; assay type: functional, organism-based; settings: 3D7, Erythrocyte
[7] = system: Plasmodium falciparum; assay: Antimalarial activity against Plasmodium falciparum Dd2 assessed as inhibition of parasite growth; assay type: functional, organism-based
[8] = system: Plasmodium falciparum; assay: Antimalarial activity against Plasmodium falciparum 3D7 assessed as inhibition of parasite growth; assay type: functional, organism-based
[9] = system: Plasmodium falciparum; assay: Antimalarial activity against Plasmodium falciparum Dd2 infected in human erythrocytes assessed as reduction in parasite growth measured after 72 hrs by microscopic analysis; assay type: functional, organism-based; settings: Dd2, Erythrocyte
[10] = system: Plasmodium falciparum; assay: Antimalarial activity against Plasmodium falciparum 3D7 infected in human erythrocytes assessed as reduction in parasite growth measured after 72 hrs by microscopic analysis; assay type: functional, organism-based; settings: 3D7, Erythrocyte
[11] = system: Plasmodium falciparum; assay: Antimalarial activity against chloroquine resistant Plasmodium falciparum FcR3 assessed as inhibition of parasite growth measured after 48 hrs by classical radioactive microdilution method; assay type: functional, organism-based; settings: FcR3, 48 h
[12] = system: Plasmodium falciparum; assay: Antimalarial activity against highly chloroquine resistant Plasmodium falciparum FcM29 assessed as inhibition of parasite growth measured after 48 hrs by classical radioactive microdilution method; assay type: functional, organism-based; settings: FcM29, 48 h
[13] = system: Plasmodium falciparum; assay: Antimalarial activity against chloroquine sensitive Plasmodium falciparum infected in human red blood cells assessed as inhibition of liberation and reinvasion steps of the erythrocytes by parasites measured after 72 hrs by titrated hypoxanthine incorporation assay; assay type: functional, organism-based, Red blood cell; settings: Erythrocyte
[14] = system: Plasmodium falciparum; assay: Antimalarial activity against chloroquine resistant Plasmodium falciparum FcB1 infected in human red blood cells assessed as inhibition of liberation and reinvasion steps of the erythrocytes by parasites measured after 72 hrs by titrated hypoxanthine incorporation assay; assay type: functional, organism-based, Red blood cell; settings: FcB1, Erythrocyte
[15] = system: Plasmodium falciparum; assay: Antimalarial activity against chloroquine-resistant Plasmodium falciparum W2 assessed as inhibition of parasite growth; assay type: functional, organism-based
[16] = system: Plasmodium falciparum; assay: Antimalarial activity against chloroquine-sensitive Plasmodium falciparum D6 assessed as inhibition of parasite growth; assay type: functional, organism-based
[17] = system: Plasmodium falciparum; assay: Antimalarial activity against chloroquine-sensitive Plasmodium falciparum D6 assessed as inhibition of parasite growth by parasite lactate dehydrogenase assay; assay type: functional, organism-based
[18] = system: Plasmodium falciparum; assay: Antimalarial activity against chloroquine-resistant Plasmodium falciparum W2 assessed as inhibition of parasite growth by parasite lactate dehydrogenase assay; assay type: functional, organism-based
[19] = system: Plasmodium berghei; assay: Antiplasmodial activity against luciferase expressing hepatic stage Plasmodium berghei sporozoites infected in human Huh-7 cells assessed as inhibition of parasite infection preincubated with cells for 1 hrs followed by parasite infection and measured after 48 hrs by bioluminescence assay; assay type: functional, organism-based
[20] = system: Plasmodium falciparum; assay: Antimalarial activity against Plasmodium falciparum K1 assessed as inhibition of parasite growth; assay type: functional, organism-based
[21] = system: Plasmodium falciparum; assay: Antimalarial activity against chloroquine and quinine sensitive Plasmodium falciparum assessed as inhibition of parasite growth; assay type: functional, organism-based
[22] = Metabolic stability in Sprague-Dawley rat assessed as Tmax of 97-63 metabolite by LC-MS/MS analysis; assay type: ADME
[23] = Apparent oral volume of distribution in Sprague-Dawley rat by LC-MS/MS analysis; assay type: ADME; settings: in vivo
[24] = Metabolic stability in Sprague-Dawley rat assessed as Cmax of 97-63 metabolite by LC-MS/MS analysis; assay type: ADME
[25] = Metabolic stability in Sprague-Dawley rat assessed as AUC(0 to t) of 97-63 metabolite by LC-MS/MS analysis; assay type: ADME
[26] = Metabolic stability in Sprague-Dawley rat assessed as AUC(0 to infinity) of 97-63 metabolite by LC-MS/MS analysis; assay type: ADME; design: time infinity
[27] = Metabolic stability in Sprague-Dawley rat assessed as half-life of 97-63 metabolite by LC-MS/MS analysis; assay type: ADME
[28] = system: Plasmodium falciparum; assay: Antimalarial activity against chloroquine-resistant Plasmodium falciparum K14 infected in human red blood cells assessed as inhibition of parasite growth incubated for 42 hrs by [3H]-hypoxanthine incorporation assay; assay type: functional, organism-based, Red blood cell; settings: K14, Erythrocyte
[29] = system: Plasmodium falciparum; assay: Antimalarial activity against chloroquine-sensitive Plasmodium falciparum 3D7 infected in human erythrocytes assessed as inhibition of parasite growth incubated for 48 hrs by parasite lactate dehydrogenase based colorimetric assay; assay type: functional, organism-based; settings: 3D7, 48 h
[30] = system: Plasmodium falciparum; assay: Antimalarial activity against chloroquine-resistant Plasmodium falciparum FCR3 infected in human erythrocytes assessed as inhibition of parasite growth incubated for 48 hrs by [3H]-hypoxanthine incorporation assay; assay type: functional, organism-based

SMILES: c1cc(C2CCC3(CC2)OOC2(O3)C3CC4CC(C3)CC2C4)ccc1OCCN1CCOCC1 (stereo not given)
IC50 [1]: 2.8 ng/mL (≈ 5.96 nM)
IC50 [2]: 2.8 ng/mL (≈ 5.96 nM)

SMILES: CN1CCN(C2CCN(C(=O)CC3CCC4(CC3)OOC3(OO4)C4CC5CC(C4)CC3C5)CC2)CC1 (stereo not given)
IC50 [3]: 1.1 nM
EC50 [4]: 1.33 mg/kg
EC90 [4]: 4.18 mg/kg
IC50 [5]: 0.8 nM

SMILES: CCCCCCCCCCCCCCC[C@@H](O)CC1(OC)CCC2(C=CC(=O)C=C2)O1 (stereo not given in full)
IC50 [6]: 480 nM

SMILES: C1CCCCCC2(CCCCC1)OOCCCOO2
EC50 [7]: 897 nM
EC50 [8]: 268 nM

SMILES: OCCCCCCC1COOC2(CCCCCCCCCCC2)OOC1
EC50 [9]: 897 nM
EC50 [10]: 332 nM

SMILES: CC1(C)COC2(CCC(NC3CCC(Nc4ccnc5cc(Cl)ccc45)CC3)CC2)OO1 (stereo not given)
IC50 [11]: 12 nM
IC50 [12]: 10 nM

SMILES: Clc1ccc2c(NCCNC3CCC4(CC3)OOC3(c5ccccc5)CC(c5ccccc5)=CC3O4)ccnc2c1 (stereo not given)
IC50 [13]: 8 nM
IC50 [14]: 21 nM

SMILES: CC(=O)O[C@H]1C[C@H]2[C@@H]([C@H](OC(C)=O)C[C@@H]3CC4(CC[C@@]32C)OOC2(CCC(C)CC2)OO4)[C@@H]2CC[C@H]([C@H](C)CCC(N)=O)[C@@]12C (stereo not given in full)
IC50 [15]: 0.58 nM
IC50 [16]: 1.17 nM

SMILES: Cc1ccc(S(=O)(=O)N2CCC3(CC2)OOC(C2CCC(C)CC2)OO3)cc1 (stereo not given)
IC50 [17]: 700 nM
IC50 [18]: 830 nM

SMILES: Cc1ccc(C2OOC3(CCN(S(=O)(=O)c4ccccc4)CC3)OO2)cc1
IC50 [17]: 300 nM
IC50 [18]: > 200 nM

IC50 [19]: 3.32 µM
SMILES: CC(C)(C)C(=O)C1C(c2ccccc2)(c2ccccc2)N=NC12C(=O)N1[C@@H](C(=O)OC(c3ccccc3)c3ccccc3)C(C)(C)S[C@@H]12 (stereo not given in full)

SMILES: COC(=O)C12C=C(OC)[C@]3(Cl)C(C)(C=C(C4=C[C@H](O)[C@@H]5O[C@]5(CC=C(C)C)[C@@H]4O)[C@]3(O)C13OC(=O)c1c(O)cc(C)cc1O3)C2 (stereo not given in full)
IC50 [20]: 2.71 µM

SMILES: CC(C)(N)CNC(=O)C(=O)OC1CCCC2(C1)OOC1(O2)C2CC3CC(C2)CC1C3 (stereo not given)
IC50 [1]: 0.91 ng/mL (≈ 2.15 nM)
IC50 [2]: 1 ng/mL (≈ 2.37 nM)

SMILES: COC(=O)C1=CO[C@@H](C)[C@@H]2CN3CC[C@@]4(C(=O)Nc5ccccc54)[C@H]3C[C@H]12
IC50 [15]: 17 µg/mL

SMILES: CCOC(=O)C1=C2N=C(c3ccncc3)NN2C2=C(C(=O)CCC2)C12C(=O)Nc1ccccc12 (stereo not given)
IC50 [21]: 295 nM

SMILES: O=C(O)CC1CCC2(CC1)OOC1(O2)C2CC3CC(C2)CC1C3 (stereo not given)
IC50 [1]: 45 ng/mL (≈ 140 nM)
IC50 [2]: 34 ng/mL (≈ 105 nM)

SMILES: C=C(c1ccc(OC(C)(C)COC(=O)CCC(=O)O)cc1)C1OCC2(OO1)C1CC3CC(C1)CC2C3 (stereo not given)
Tmax [22]: 2.2 h
Vd/F [23]: 7.81 L/kg
Cmax [24]: 1.35 µg/mL
AUCt [25]: 9.1 µg·h/mL
AUC [26]: 9.15 µg·h/mL
t1/2 [27]: 9.27 h

SMILES: COC(=O)C12C=C(OC)[C@@]3(Cl)C(C)(C=C(C4=C[C@H](O)[C@@H]5O[C@]5(CC=C(C)C)[C@@H]4O)[C@@]3(O)C13OC(=O)c1c(O)cc(C)cc1O3)C2 (stereo not given in full)
IC50 [20]: 5.73 µM

SMILES: CCOc1ccc(N2C(=O)C3(c4ccccc4Cc4ccccc43)C23c2ccccc2-c2ccccc23)cc1
IC50 [28]: 5 µM

SMILES: COc1cc([C@@H]2c3cc(Cl)ccc3NC3(C(=O)Nc4ccccc43)[C@H]2C)ccc1O (stereo not given in full)
IC50 [29]: 1800 nM
IC50 [30]: 1670 nM

SMILES: CC(C)OC(=O)C1=C2N=C(c3ccncc3)NN2C2=C(C(=O)CCC2)C12C(=O)Nc1ccccc12 (stereo not given)
IC50 [21]: 246 nM
